Assay results published in patent US5849736A, “Isoxazoline and isoxazole fibrinogen receptor antagonists” (The DuPont Merck Pharmaceutical Company, priority 1995, dated 1998).
Structures can show the parent of a compound that is named as a salt.

Each compound was assayed on platelet aggregation in human platelet rich plasma (PRP) (assay: Platelet Aggregation Assay (platelet rich plasma, with or without esterase pretreatment)). Conditions: Platelet, preincubated with 100 IU/mL porcine liver esterase 2 hours at 37° C., 100 μM ADP, read-out: Platelet Aggregation Assay IC50 (with esterase).
Format: cell-based
Method in brief: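 Human citrated PRP from drug-free donors, PPP as 100% transmittance blank; compounds added at various concentrations before agonist (ADP, collagen, arachidonate, epinephrine or thrombin), aggregation followed by light transmittance. Ester prodrugs pretreated (10^-3 M F.C.) with 100 IU/mL porcine liver esterase, 2 h 37 °C; 8 min 37 °C preincubation, then 100 μM ADP, 5 min; % inhibition vs control, IC50.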

| SMILES | IC50 [µM] |
| --- | --- |
| COC(=O)C(CNC(=O)CC1CC(c2ccc(C(=N)N)cc2)=NO1)NS(=O)(=O)c1ccc(Br)s1 (stereo not shown) [Example 549] | < 10 |
| COC(=O)C(CNC(=O)CC1CC(c2ccc(C(=N)N)cc2)=NO1)NS(=O)(=O)c1ccc(-c2cc(C(F)(F)F)n(C)n2)s1 (stereo not shown) [Example 550] | < 10 |
| COC(=O)C(CNC(=O)CC1CC(c2ccc(C(=N)N)cc2)=NO1)NS(=O)(=O)c1ccc(-c2ccon2)s1 (stereo not shown) [Example 551] | < 10 |
| COC(=O)C(CNC(=O)CC1CC(c2ccc(C(=N)N)cc2)=NO1)NS(=O)(=O)c1ccc(-c2ccccn2)s1 (stereo not shown) [Example 552] | < 10 |
| COC(=O)C(CNC(=O)CC1CC(c2ccc(C(=N)N)cc2)=NO1)NS(=O)(=O)c1sc(NC(C)=O)nc1C (stereo not shown) [Example 553] | < 10 |
| COC(=O)C(CNC(=O)CC1CC(c2ccc(C(=N)N)cc2)=NO1)NS(=O)(=O)c1cc2ccccc2s1 (stereo not shown) [Example 555] | < 10 |
| COC(=O)C(CNC(=O)CC1CC(c2ccc(C(=N)N)cc2)=NO1)NS(=O)(=O)c1sc2ccccc2c1C (stereo not shown) [Example 556] | < 10 |
| CCCCOC(=O)N[C@@H](CNC(=O)CC1CC(c2ccc(NC(=N)N)cc2)=NO1)C(=O)OC (stereo partly drawn) [Example 602, Methyl N^2-n-butyloxycarbonyl-N^3-[3-(4-guanidinophenyl)isoxazolin-5-(R,S)-ylacetyl]-(S)-2,3-diaminopropionate, trifluoroacetic acid salt] | < 10 |
| COC(=O)CC(CNS(=O)(=O)N(C)C)NC(=O)CC1CC(c2ccc(C(=N)N)cc2)=NO1 (stereo not shown) [Example 611] | < 10 |
| COC(=O)CC(CN1CCCC1)NC(=O)CC1CC(c2ccc(C(=N)N)cc2)=NO1 (stereo not shown) [Example 612] | < 10 |
| CCCCOC(=O)NC(CNC(=O)CC1CC(c2ccc(C(=N)N)cc2F)=NO1)C(=O)OC (stereo not shown) [Example 613] | < 10 |
| Cn1cnc(S(=O)(=O)NC(CNC(=O)CC2CC(c3ccc(C(=N)N)cc3)=NO2)C(=O)O)c1 (stereo not shown) [Example 643] | < 10 |
| Cc1nc(C)c(S(=O)(=O)NC(CNC(=O)CC2CC(c3ccc(C(=N)N)cc3)=NO2)C(=O)O)s1 (stereo not shown) [Example 644] | < 10 |
| COC(=O)[C@H](CN(C)C(=O)CC1CC(c2ccc(C(=N)N)cc2)=NO1)NC(=O)OCc1ccccc1 (stereo partly drawn) [Example 651, Methyl N^2-benzyloxycarbonyl-N^3-methyl-N^3-[3-(4-amidinophenyl)isoxazolin-5-(R,S)-ylacetyl]-(S)-2,3-diaminopropionate, trifluoroacetic acid salt] | < 10 |
| COC(=O)C(CNC(=O)Cc1cc(-c2ccc(C(=N)N)cc2)no1)NC(=O)OCc1ccccc1 (stereo not shown) [Example 727] | < 10 |
| CCCCOC(=O)NC(CNC(=O)Cc1cc(-c2ccc(C(=N)N)cc2)no1)C(=O)OC (stereo not shown) [Example 729] | < 10 |
| Cc1cccc(S(=O)(=O)NC(CNC(=O)Cc2cc(-c3ccc(C(=N)N)cc3)no2)C(=O)O)c1 (stereo not shown) [Example 798] | < 10 |
| CCCCOC(=O)N[C@@H](CNC(=O)CC1=NOC(c2ccc(C(=N)N)cc2)C1)C(=O)OC (stereo partly drawn) [Example 829, Methyl N^2-n-butyloxycarbonyl-N^3-[5-(4-amidinophenyl)isoxazolin-3-ylacetyl]-(2S)-2,3-diaminopropionate] | < 10 |
| N=C(N)NCCCC1CC(C(=O)NCC(NC(=O)OCc2ccccc2)C(=O)O)=NO1 (stereo not shown) [Example 1284] | < 10 |
| N=C(N)NCCCCC1CC(C(=O)NCC(NC(=O)OCc2ccccc2)C(=O)O)=NO1 (stereo not shown) [Example 1321] | < 10 |
| N=C(N)NCCC1CC(C(=O)NCC(NC(=O)OCc2ccccc2)C(=O)O)=NO1 (stereo not shown) [Example 1525] | < 10 |
| N=C(N)NCCCC1=NOC(CC(=O)NCC(NC(=O)OCc2ccccc2)C(=O)O)C1 (stereo not shown) [Example 1694] | < 10 |

| SMILES | IC50 [µM] |
| --- | --- |
| N=C(N)NCCCCC1=NOC(CC(=O)NCC(NC(=O)OCc2ccccc2)C(=O)O)C1 (stereo not shown) [Example 1731] | < 10 |
| Cc1noc(C)c1S(=O)(=O)N[C@@H](CNC(=O)C[C@H]1CC(c2ccc(C(=N)N)cc2)=NO1)C(=O)O [Example 2104] | < 10 |
| N=C(N)NCCC1=NOC(CC(=O)NCC(NC(=O)OCc2ccccc2)C(=O)O)C1 (stereo not shown) [Example 2109] | < 10 |
| N=C(N)NCCCCCC1=NOC(CC(=O)NCC(NC(=O)OCc2ccccc2)C(=O)O)C1 (stereo not shown) [Example 2110] | < 10 |
| COC(=O)C(CNC(=O)CC1CC(c2ccc(C(=N)NCc3ccccc3OC)cc2)=NO1)NS(=O)(=O)c1ccccc1C (stereo not shown) [Example 2111] | < 10 |
| COc1ccccc1CNC(=N)c1ccc(C2=NOC(CC(=O)NCC(NS(=O)(=O)c3ccccc3C)C(=O)O)C2)cc1 (stereo not shown) [Example 2112] | < 10 |
| CCCCNC(=N)c1ccc(C2=NOC(CC(=O)NCC(NS(=O)(=O)c3ccccc3C)C(=O)OC)C2)cc1 (stereo not shown) [Example 2113] | < 10 |
| CCCCNC(=N)c1ccc(C2=NOC(CC(=O)NCC(NS(=O)(=O)c3ccccc3C)C(=O)O)C2)cc1 (stereo not shown) [Example 2114] | < 10 |
| CCNC(=N)c1ccc(C2=NOC(CC(=O)NCC(NS(=O)(=O)c3ccccc3C)C(=O)OC)C2)cc1 (stereo not shown) [Example 2115] | < 10 |
| CCNC(=N)c1ccc(C2=NOC(CC(=O)NCC(NS(=O)(=O)c3ccccc3C)C(=O)O)C2)cc1 (stereo not shown) [Example 2116] | < 10 |
| COC(=O)C(CNC(=O)CC1CC(c2ccc(C(=N)N)cc2)=NO1)NS(=O)(=O)c1ccc(S(=O)(=O)c2ccccc2)s1 (stereo not shown) [Example 2118] | < 10 |
| N=C(N)c1ccc(C2=NOC(CC(=O)NCC(NS(=O)(=O)c3ccc(S(=O)(=O)c4ccccc4)s3)C(=O)O)C2)cc1 (stereo not shown) [Example 2119] | < 10 |
| CC(C)(C)OC(=O)NC(=N)c1ccc(C2=NOC(CC(=O)NCC(NS(=O)(=O)c3ccc(S(=O)(=O)c4ccccc4)s3)C(=O)O)C2)cc1 (stereo not shown) [Example 2120] | < 10 |
| N=C(N)NCCC1CC(CCC(=O)NCC(NC(=O)OCc2ccccc2)C(=O)O)=NO1 (stereo not shown) [Example 2280] | < 10 |
| N=C(N)NCC1CC(CCC(=O)NCC(NC(=O)OCc2ccccc2)C(=O)O)=NO1 (stereo not shown) [Example 2281] | < 10 |
| N=C(N)NCCC1=NOC(CCC(=O)NCC(NC(=O)OCc2ccccc2)C(=O)O)C1 (stereo not shown) [Example 2400] | < 10 |
| N=C(N)NCCCC1=NOC(C(=O)NCC(NC(=O)OCc2ccccc2)C(=O)O)C1 (stereo not shown) [Example 2401] | < 10 |
| N=C(N)NCCCCCC1=NOC(C(=O)NCC(NC(=O)OCc2ccccc2)C(=O)O)C1 (stereo not shown) [Example 2402] | < 10 |
| N=C(N)NCCCC1=NOC(CCC(=O)NCC(NC(=O)OCc2ccccc2)C(=O)O)C1 (stereo not shown) [Example 2403] | < 10 |
| N=C(N)NCCCCC1=NOC(CCC(=O)NCC(NC(=O)OCc2ccccc2)C(=O)O)C1 (stereo not shown) [Example 2404] | < 10 |
| N=C(N)NCCC1=NOC(C(=O)NCC(NC(=O)OCc2ccccc2)C(=O)O)C1 (stereo not shown) [Example 2405] | < 10 |
| N=C(N)NCCCCC1=NOC(C(=O)NCC(NC(=O)OCc2ccccc2)C(=O)O)C1 (stereo not shown) [Example 2406] | < 10 |

Same assay, conditions: Platelet, without esterase, read-out: Platelet Aggregation Assay IC50 (without esterase)

| SMILES | IC50 [µM] |
| --- | --- |
| Cc1cccc(S(=O)(=O)N[C@@H](CNC(=O)CC2CC(c3ccc(C(=N)N)cc3)=NO2)C(=O)O)c1 (stereo partly drawn) [Example 587A, N^2-3-methylphenylsulfonyl-N^3-[3-(4-amidinophenyl)isoxazolin-5S-ylacetyl]-S-2,3-diaminopropionic acid] | < 10 |
| CCCCOC(=O)NC(CNC(=O)CC1CC(CCCC2CCNCC2)=NO1)C(=O)OC (stereo not shown) [Example 616] | < 10 |
